Values of other authors as cited in US7098376B2, “Transgenic mouse expressing constitutively active hydrocarbon receptor” (InDex Pharmaceuticals AB, priority 2000, dated 2006).

Test system: mouse models

For `Clc1cc2c(cc1Cl)Oc1cc(Cl)c(Cl)cc1O2` [TCDD, 2,3,7,8-tetrachlorodibenzo-p-dioxin], the “dose at which weight loss or impaired weight gain are detected” value (mice exposed to TCDD) is listed as “higher than 3 μg/kg body weight” and the “acute toxic effects (e.g. lethality or the wasting syndrome)” value (single dose of 3 μg TCDD/kg body weight, mouse models) is listed as “no acute toxic effects”.
